Measurements as given in patent US6534546B1 (Chugai Seiyaku Kabushiki Kaisha, priority 1994, dated 2003).
Counter-ions that a name gives are not always drawn. Like-named read-outs stand apart in the source and are kept apart here.

How the values were obtained:
E-cNOS (Type 3) = target: T1, E-cNOS (Type 3) (Bos taurus, UniProt P29473); test: biochemical
T1 construct: the resulting supernatant was used as the crude enzyme sample of E-cNOS; endogenous in cells; host or cells: CPAE (cow pulmonary arterial endothelium cells), 1% Triton X-100 extract, 100,000 x g supernatant
T1 sequence (P29473 2-1205): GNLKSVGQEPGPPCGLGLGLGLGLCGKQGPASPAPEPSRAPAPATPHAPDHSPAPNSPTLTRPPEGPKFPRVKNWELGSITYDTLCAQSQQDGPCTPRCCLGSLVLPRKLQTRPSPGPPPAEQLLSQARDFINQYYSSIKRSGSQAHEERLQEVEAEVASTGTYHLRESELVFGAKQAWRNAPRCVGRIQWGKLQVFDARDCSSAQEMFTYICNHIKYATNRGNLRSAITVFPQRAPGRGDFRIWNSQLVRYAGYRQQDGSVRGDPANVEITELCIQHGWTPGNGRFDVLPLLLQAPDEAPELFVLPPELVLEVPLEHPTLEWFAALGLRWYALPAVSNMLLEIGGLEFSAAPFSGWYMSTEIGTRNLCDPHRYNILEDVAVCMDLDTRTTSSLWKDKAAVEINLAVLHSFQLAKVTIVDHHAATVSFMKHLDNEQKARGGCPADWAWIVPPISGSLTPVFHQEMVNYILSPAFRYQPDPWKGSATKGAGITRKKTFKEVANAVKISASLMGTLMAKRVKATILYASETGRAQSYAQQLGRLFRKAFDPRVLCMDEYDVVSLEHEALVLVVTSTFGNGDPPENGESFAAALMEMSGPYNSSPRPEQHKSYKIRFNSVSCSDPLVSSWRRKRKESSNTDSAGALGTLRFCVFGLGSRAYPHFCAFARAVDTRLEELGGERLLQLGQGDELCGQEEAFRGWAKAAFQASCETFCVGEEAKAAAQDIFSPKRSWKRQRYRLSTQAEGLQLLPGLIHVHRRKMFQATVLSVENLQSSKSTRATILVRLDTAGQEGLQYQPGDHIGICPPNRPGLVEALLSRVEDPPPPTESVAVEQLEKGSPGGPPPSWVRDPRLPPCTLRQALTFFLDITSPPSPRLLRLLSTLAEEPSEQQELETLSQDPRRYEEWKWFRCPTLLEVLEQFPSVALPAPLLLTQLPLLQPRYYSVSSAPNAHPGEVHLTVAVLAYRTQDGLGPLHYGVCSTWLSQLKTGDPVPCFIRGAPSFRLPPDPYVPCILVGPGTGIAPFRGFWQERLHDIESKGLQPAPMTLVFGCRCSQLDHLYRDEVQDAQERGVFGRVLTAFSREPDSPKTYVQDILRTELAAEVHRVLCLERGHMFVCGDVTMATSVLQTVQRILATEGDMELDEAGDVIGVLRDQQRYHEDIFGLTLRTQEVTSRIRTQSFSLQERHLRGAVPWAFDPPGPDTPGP
Description: The crude enzyme sample of E-cNOS was prepared by the following procedure. A cow pulmonary arterial endothielium cell (CPAE) was cultured in a MEM medium containing 20% FBS. […] A suitable amount of Ca- and Mg-free phosphate buffer (pH 7.4) was added to the precipitating cells and they were centrifuged at 1,000 rpm for 10 min. The same step was repeated to wash the cells which, upon addition of 50 mM Tris-HCl (pH 7.4) containing 1% Triton X-100 and 1 mM DTT, were left to stand in ice for 1 h. Subsequently, the mixture was homogenized for 3 min and kept in ice for 30 min with occasional stirring. Finally, the mixture was centrifuged at 100,000×g for 60 min and the resulting supernatant was used as the crude enzyme sample of E-cNOS.
The reaction was started by addition of L-[^3H]arginine and following incubation at 37° C. for 10 min, the reaction was terminated by addition of 2 ml of 50 mM Tris-HCl (pH 5.5) containing 1 mM EDTA and placing the mixture on ice. The reaction solution was passed through a cation-exchange resin column (Dowex AG50WX-8, Na^+ form, 3.2 ml) to separate the reaction product L-[^3H]citrulline from the unreacted residual substrate L-[^3H]arginine. The eluate was combined with another eluate resulting from the passage of a given amount of distilled water through the column and put into a minivial for recovery of L-[^3H]citrulline. Thereafter, a scintillation fluid was added and the contained radioactivity was measured with a liquid scintillation counter to determine the amount of L-[^3H]citrulline.
The activity of N-cNOS or E-cNOS was determined by subtracting the activity as detected in the absence of CaCl2 and calmodulin from the activity as detected in the presence of CaCl2 and calmodulin. […] The protein concentration of each crude enzyme sample was determined with a micro-assay kit of Biorad Co. Each experiment was conducted in a duplicate.

iNOS (Type 2) = iNOS (Type 2) (Rattus norvegicus, UniProt Q06518); test: biochemical; format: biochemical; details: for IC50: read-out: IC50 value, iNOS (Type 2)
Chain of iNOS (Type 2) (Q06518 whole entry, looked up): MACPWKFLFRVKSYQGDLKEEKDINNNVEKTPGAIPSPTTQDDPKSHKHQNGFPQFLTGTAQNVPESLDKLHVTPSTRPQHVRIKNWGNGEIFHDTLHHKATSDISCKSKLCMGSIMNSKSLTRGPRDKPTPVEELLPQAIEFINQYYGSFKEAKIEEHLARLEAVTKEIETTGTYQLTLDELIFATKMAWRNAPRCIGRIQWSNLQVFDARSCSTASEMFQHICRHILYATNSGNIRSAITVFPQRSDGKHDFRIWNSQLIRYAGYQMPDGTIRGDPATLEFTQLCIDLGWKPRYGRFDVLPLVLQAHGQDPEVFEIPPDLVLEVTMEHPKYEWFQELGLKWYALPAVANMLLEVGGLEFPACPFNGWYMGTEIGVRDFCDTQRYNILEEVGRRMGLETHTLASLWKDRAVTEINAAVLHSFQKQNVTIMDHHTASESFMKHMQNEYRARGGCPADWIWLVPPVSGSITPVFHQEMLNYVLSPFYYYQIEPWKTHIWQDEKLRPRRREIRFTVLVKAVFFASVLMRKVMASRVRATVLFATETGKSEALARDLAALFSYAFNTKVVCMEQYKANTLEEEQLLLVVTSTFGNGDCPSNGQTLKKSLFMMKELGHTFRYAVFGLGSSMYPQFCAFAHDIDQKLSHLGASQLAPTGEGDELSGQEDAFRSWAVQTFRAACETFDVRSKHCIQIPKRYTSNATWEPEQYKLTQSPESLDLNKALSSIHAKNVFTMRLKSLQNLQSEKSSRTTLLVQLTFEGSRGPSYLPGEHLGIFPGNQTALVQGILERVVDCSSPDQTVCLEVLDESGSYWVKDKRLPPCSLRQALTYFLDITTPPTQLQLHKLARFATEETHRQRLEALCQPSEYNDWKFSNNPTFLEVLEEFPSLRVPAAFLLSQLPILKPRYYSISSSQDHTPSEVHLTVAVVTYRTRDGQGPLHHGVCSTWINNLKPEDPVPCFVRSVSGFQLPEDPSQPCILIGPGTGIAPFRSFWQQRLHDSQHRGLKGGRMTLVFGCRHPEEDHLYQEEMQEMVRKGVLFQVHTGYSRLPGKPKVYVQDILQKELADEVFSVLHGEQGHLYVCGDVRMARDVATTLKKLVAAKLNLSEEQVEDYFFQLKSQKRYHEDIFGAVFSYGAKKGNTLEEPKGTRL

[1] = mean of one to four independent experiments, crude enzyme, 100 nM L-[3H]arginine, read-out: IC50 value, E-cNOS (Type 3)
[2] = mean of one to four independent experiments, crude enzyme, 100 nM L-[3H]arginine, without CaCl2 and calmodulin

Structure (SMILES)	IC50 (E-cNOS (Type 3); [1]) [nM]	other results
NC(=N[N+](=O)[O-])Nc1cccc(C2(N)CCCC2)c1 [Example 171, N-(1-(3-(N′-nitroguanidino)phenyl)cyclopentyl)amine hydrochloride]	29.2	–
CCN=C(N)Nc1cccc(C2(N)CCCC2)c1 [Example 236, N-(1-(3-(N′-ethylguanidino)phenyl)cyclopentyl)amine dihydrochloride]	325	–
N=C(NCCC[C@H](N)C(=O)O)NC1CC1 [L-CPA, N^G-cyclpropyl-L-arginine, reference compound]	987	–
CCSC(=N)Nc1ccc(N(C)CC)c(CN)c1 [Example 288, N-(5-(S-ethylisothioureido)-2-(N-ethyl-N-methylamino)phenylmethyl)amine trihydrochloride]	1260	–
CCSC(=N)Nc1cccc(CN)c1.Cl.Cl [Example 28, N-(3-(S-ethylisothioureido)phenylmethyl)amine dihydrochloride]	–	iNOS inhibitory potency compared with the existing NOS inhibitors (L-MIN) (iNOS (Type 2); conclusion from Tables 49, 50 and 51): more potent in inhibiting iNOS than L-MIN; IC50 (iNOS (Type 2); [2]): 32.7 nM
CCSC(=N)Nc1cccc(CNC)c1C [Example 411, N-(3-(S-ethylisothioureido)-2-methylphenylmethyl)methylamine dihydrochloride]	341	–
NC(=N[N+](=O)[O-])Nc1cccc(C2(N)CCCCC2)c1 [Example 169, N-(1-(3-(N′-nitroguanidino)phenyl)cyclohexyl)amine hydrochloride]	–	IC50 (E-cNOS (Type 3)): 41.5 nM
CCN=C(N)Nc1cccc(C(C)(C)N)c1 [Example 300, N-(1-(3-(N′-ethylguanidino)phenyl)-1-methylethyl) amine dihydrochloride]	492	–
CCN=C(N)Nc1cccc(CN(C)C)c1 [Example 374, N-(3-(N′-ethylguanidino)phenylmethyl)dimethylamine dihydrochloride]	1290	–
CCSC(=N)Nc1ccc(CC(C)(C)N)cc1 [Example 193, N-(1,1-dimethyl-2-(4-(S-ethylisothioureido)phenyl)ethyl)amine dihydrochloride]	–	IC50 (E-cNOS (Type 3)): 1540 nM
CCSC(=N)Nc1cccc(CN(C)C)c1 [Example 372, N-(3-(S-ethylisothioureido)phenylmethyl)dimethylamine]	360	–
CCSC(=N)Nc1ccc(C(CN)C(=O)OC)cc1 (centres unmarked) [Example 226, 3-amino-2-(4-(S-ethylisothioureido)phenyl)propionic acid methyl ester dihydrochloride]	1440	–
CCSC(=N)Nc1cccc(C2(N)CCCC2)c1 [Example 153, N-(1-(3-(S-ethylisothioureido)phenyl)cyclopentyl)amine dihydrochloride]	423	–
CCN=C(N)Nc1cccc(CN)c1C [Example 533, N-(3-(N′-ethylguanidino)-2-methylphenylmethyl)amine dihydrochloride]	3770	–
CCSC(=N)Nc1ccc(OC)c(CN)c1OC [Example 298, N-(2,6-dimethoxy-3-(S-ethylisothioureido)phenylmethyl)amine dihydrochloride]	4140	–
CSC(=N)Nc1cccc(C2(N)CCC2)c1 [Example 160, N-(1-(3-(S-methylisothioureido)phenyl)cyclobutyl)amine dihydrochloride]	477	–
CN=C(N)Nc1cccc(CN)c1 [Example 367, N-(3-(N′-methylguanidino)phenylmethyl)amine dihydrochloride]	3710	–
CCN=C(N)Nc1ccc(CCN)c(F)c1 [Example 258, N-(2-(4-(N′-ethylguanidino)-2-fluorophenyl)ethyl)amine dihydrochloride]	–	IC50 (E-cNOS (Type 3)): 1090 nM
CCN=C(N)Nc1ccc(N(C)CC)c(CN)c1 [Example 285, N-(5-(N′-ethylguanidino)-2-(N-ethyl-N-methyl-amino)phenylmethyl)amine trihydrochloride]	7310	–
CCSC(=N)Nc1ccc(CCN)c(OC)c1 [Example 482, N-(2-(4-(S-ethylisothioureido)-2-methoxyphenyl)ethyl)amine dihydrochloride]	–	IC50 (E-cNOS (Type 3)): 1990 nM
CNC(=N)NCCC[C@H](N)C(=O)O [L-NMMA, N^G-monomethyl-L-arginine, reference compound]	–	IC50 (iNOS (Type 2)): 3480 nM
CSC(=N)Nc1cccc(C2(N)CCCC2)c1 [Example 151, N-(1-(3-(S-methylisothioureido)phenyl)cyclopentyl)amine dihydrochloride]	262	–
N=C(Nc1cccc(CN)c1)N[N+](=O)[O-] [Example 34, N-(3-(N′-nitroguanidino)phenylmethyl)amine]	–	IC50 (iNOS (Type 2); mean of one to four independent experiments, LPS-treated rat lung crude enzyme): 6760 nM
N=C(Nc1cccc(C2(N)CCC2)c1)N[N+](=O)[O-] [Example 173, N-(1-(3-(N′-nitroguanidino)phenyl)cyclobutyl)amine hydrochoride]	24.1	–
CSC(=N)Nc1cccc(CCN)c1 [Example 60, N-(3-(S-methylisothioureido)phenylethyl)amine dihydrochloride]	–	IC50 (iNOS (Type 2); [2]): 6750 nM

Structure (SMILES)	IC50 (E-cNOS (Type 3); [1]) [nM]	other results
CCSC(=N)Nc1cccc(CNC)c1 [Example 47, N-(3-(S-ethylisothioureido)phenylmethyl)methylamine dihydrochloride]	72.9	–
CCSC(=N)Nc1cccc(C(C)NC)c1 (centres unmarked) [Example 112, N-(1-(3-(S-ethylisothiourido)phenyl)ethyl)methylamine dihydrochloride]	408	–
CCC(N)c1cccc(NC(N)=N[N+](=O)[O-])c1 (centres unmarked) [Example 21, N-(1-(3-(N′-nitroguanidino)phenyl)propyl)amine hydrochloride]	–	IC50 (iNOS (Type 2); [2]): 2610 nM
CCNc1ccc(NC(=N)SCC)cc1CN(C(=O)OC(C)(C)C)C(=O)OC(C)(C)C [Example 458, N-(2-ethylamino-5-(S-ethylisothioureido)phenylmethyl)iminodicarboxylic acid di-t-butyl ester]	4100	–
CCSC(=N)Nc1cccc(C(N)CC)c1 (centres unmarked) [Example 177, N-(1-(3-(S-ethylisothioureido)phenyl)propyl)amine dihydrochloride]	510	–
CCN(C)C(=N)Nc1cccc(CN)c1 [Example 305, N-(3-(N′-ethyl-N′-methylguanidino)phenylmethyl)amine dihydrochloride]	1710	–
CCN=C(N)Nc1cccc(CNC)c1 [Example 376, N-(3-(N′-ethylguanidino)phenylmethyl)methylamine dihydrochloride]	339	–
CCSC(=N)Nc1ccc(NCc2ccccc2)c(CN)c1 [Example 438, N-(2-benzylamino-5-(S-ethylisothioureido)phenylmethyl)amine trihydrochloride]	6950	–
CCSC(=N)Nc1cccc(C2(N)CCC2)c1 [Example 162, N-(1-(3-(S-ethylisothioureido)phenyl)cyclobutyl)amine dihydrochloride]	576	–
CCN=C(N)Nc1cccc(CCN)c1 [Example 543, N-(3-(N′-ethylguanidino)phenylethyl)amine dihydrochloride]	3120	–
CN(C)c1ccc(NC(N)=N[N+](=O)[O-])cc1CN [Example 281, N-(2-dimethylamino-5-(N′-nitroguanidino)phenylmethyl)amine dihydrochloride]	1620	–
CN(C)Cc1cccc(NC(N)=N[N+](=O)[O-])c1 [Example 39, N-(3-(N′-nitroguanidino)phenylmethyl)dimethylamine acetate]	–	IC50 (iNOS (Type 2); [2]): 22900 nM
CCN=C(N)Nc1cccc(C2(N)CCCCC2)c1 [Example 234, N-(1-(3-(N′-ethylguanidino)phenyl)cyclohexyl)amine dihydrochloride]	–	IC50 (E-cNOS (Type 3)): 1170 nM
CCN=C(N)Nc1cccc(C2(N)CCC2)c1 [Example 238, N-(1-(3-(N′-ethylguanidino)phenyl)cyclobutyl)amine dihydrochloride]	1160	–
CCSC(=N)Nc1cccc(CNN)c1 [Example 355, 3-(S-ethylisothioureido)phenylmethylhydrazine trihydrochloride]	662	–
CCSC(=N)Nc1ccc(F)c(CN)c1 [Example 317, N-(5-(S-ethylisothioureido)-2-fluorophenylmethyl)amine dihydrochloride]	239	–
CCSC(=N)Nc1cccc(C2(N)CCCCC2)c1 [Example 144, N-(1-(3-(S-ethylisothioureido)phenyl)cyclohexyl)amine dihydrochloride]	–	IC50 (E-cNOS (Type 3)): 898 nM
CCSC(=N)Nc1cccc(CN)c1Cl [Example 137, N-(2-chloro-3-(S-ethylisothioureido)phenylmethyl)amine dihydrochloride]	485	–
CCN=C(N)Nc1ccc(CCN)cc1 [Example 528, N-(2-(4-(N′-ethylguanidino)phenyl)ethyl)amine dihydrochloride]	436	–
NCc1cc(NC(N)=N[N+](=O)[O-])ccc1OCc1ccccc1 [Example 341, N-(2-benzyloxy-5-(N′-nitroguanidino)phenylmethyl)amine hydrochloride]	874	–
CCSC(=N)Nc1ccc(C(C)(C)CN)cc1 [Example 185, N-(2-(4-(S-ethylisothioureido)phenyl)-2-methylpropyl)amine dihydrochloride]	–	IC50 (E-cNOS (Type 3); mean of one to four independent experiments, CPAE cell crude enzyme, read-out: IC50 value, E-cNOS (Type 3)): 3170 nM
CCSC(=N)Nc1cccc(C2(N)CC2)c1 [Example 167, N-(1-(3-(S-ethylisothioureido)phenyl)cyclopropyl)amine dihydrochloride]	366	–
CCSC(=N)Nc1cccc(C(C)N)c1 (centres unmarked) [Example 175, N-(1-(3-(S-ethylisothioureido)phenyl)ethyl)amine dihydrochloride]	200	–
CSC(=N)Nc1cccc(C2(N)CCCCC2)c1 [Example 142, N-(1-(3-(S-methylisothioureido)phenyl)cyclohexyl)amine dihydrochloride]	–	IC50 (E-cNOS (Type 3)): 663 nM
